Source: patent EP4159743A1, “METHODS FOR PREPARING PYRIDAZINE COMPOUNDS” (ETH Zurich, priority 2021, dated 2023)

Assay: Kinetics measurements, control sample: decrease in absorption of the tetrazine alone over time
Type: physicochemical
Details: absorption at 525 nm monitored over time, trypsin buffer
Description: For kinetic measurements, 196 µL trypsin buffer was added with 2 µL of a 10 mM stock solution of compound 1 in DMSO (final concentration 100 µM) and 2 µL of a 10 mM stock solution of 3,6-di-2-pyridyl-1,2,4,5-tetrazine in DMSO (final concentration 100 µM) in a quartz cuvette. The sample was mixed well and absorption at 525 nm was monitored over time, measuring every minute. Measurements were done in triplicates. […] This was subtracted from the kinetic measurements. The obtained absorbance values were converted to concentrations through a standard curve and were plotted as the reciprocal concentration of the tetrazine reagent versus time to yield a second-order rate constant. Data analysis and statistical analysis were done in Microsoft Excel (2016) and Prism 7 (GraphPad).

In the case of `c1ccc(-c2nnc(-c3ccccn3)nn2)nc1` [3,6-di-2-pyridyl-1,2,4,5-tetrazine], the “rate constant (decrease in absorption over time, fitted to a first-order reaction equation)” value is reported as 2.96e-05 s⁻¹.
